According to publication PMC8625693, “Synthesis and Structure-Activity Relationships of New 2-Phenoxybenzamides with Antiplasmodial Activity” (Pharmaceuticals, 2021):
Like-named read-outs stand apart in the source and are kept apart here.

Assays:
[1] = system: P. falciparum NF54; experiment: In vitro microplate assay against P. falciparum NF54 (3H-hypoxanthine incorporation, erythrocytic stages); format: cell-based, Plasmodium falciparum
Protocol: (§1) All newly synthesized compounds were tested for their antiplasmodial activity against the chloroquine-sensitive strain Plasmodium falciparum NF54. Cytotoxicity was determined using rat skeletal myofibroblasts (L-6 cells). As standards chloroquine and podophyllotoxin were used.
In vitro activity against erythrocytic stages of P. falciparum was determined with a ^3H-hypoxanthine incorporation assay, using the chloroquine sensitive NF54 strain [44]. Chloroquine (Sigma C6628) was used as standard. Test compounds were dissolved in DMSO at 10 mg/mL and added to parasite cultures incubated in RPMI 1640 medium without hypoxanthine, supplemented with HEPES (5.94 g/L, NaHCO3 (2.1 g/L), neomycin (100 U/mL), Albumax (5 g/L) and washed human red blood cells A^+ at 2.5% hematocrit (0.3% parasitemia). Serial drug dilutions of 11 3-fold dilution steps (covering a range from 100–0.002 µg/mL) were prepared. The 96-well plates were incubated at a humidified atmosphere at 37 °C; 4% CO2, 3% O2, 93% N2. After 48 h, 0.05 mL of ^3H-hypoxanthine (=0.5 µCi) was added to each well. The plates were incubated for another 24 h under the same conditions. Then, the plates were harvested with a Betaplate cell harvester (Wallac, Zurich, Switzerland). The red blood cells were transferred onto glass fiber filter and washed with distilled water. The dried filters were inserted into a plastic foil with 10 mL of scintillation fluid and counted in a Betaplate liquid scintillation counter. IC50 values were determined from sigmoidal inhibition curves by linear regression using Microsoft Excel. Chloroquine was used as control.

[2] = In vitro cytotoxicity with L-6 cells (Alamar Blue); format: cell-based, rat
Protocol: as §1
(§2) In vitro cytotoxicity was determined using a primary cell line of rat skeletal myofibroblasts. The assay was performed in 96-well microtiter plates, each well containing 0.1 mL of RPMI 1640 medium, supplemented with 0.1% L-glutamine (200 mM) and 10% fetal bovine serum, as well as 4000 L-6 cells. Serial drug dilutions of 11 3-fold dilution steps (covering a range from 100–0.002 µg/mL) were prepared. After 70 h of incubation time, the plates were inspected under an inverted microscope to ensure sterile conditions and growth of the controls. […] Podophyllotoxin (Sigma P4405) was used as control.

[3] = Parallel artificial membrane permeability assay (PAMPA); settings: pH 7.4
Protocol: The PAMPA was performed using a Corning Gentest Pre-coated PAMPA Plate System at a pH of 7.4. It consists of 96-well polystyrene plates, whereas the donor-plate (bottom plate) is a conventional 96-well microtiter plate. The base of the acceptor-plate (top plate) consists of a porous membrane. The pores are lined with a lipid-oil-lipid trilayer. Stock solutions (10 mM) of each test compound were prepared in DMSO or MeOH and then further diluted to a final concentration of 200 µM with phosphate-buffered saline (PBS) at a pH of 7.4. Compound solutions were then added to the wells of the donor plate and pure PBS was added to each well of the acceptor plate. Compounds and negative control (pure PBS) were tested in quadruplicates. Donor and acceptor plate were coupled and incubated at ambient temperature for 5 h. After that, the plates were separated and solutions from each well of both plates were transferred onto 96-well UV-Star Microplates (Greiner Bio-One). The UV-absorption was measured at different wavelengths (between 200 and 300 nm) by a SpectraMax M3 UV plate reader (Molecular Devices). The concentrations were received from a calibration curve for each substance. The plates were analyzed at a wavelength were the R^2 value of the calibration curve was higher than 0.99 [48]. […] (2) cequ=cDt* VD+cAt* VA/VD+VA where: • cD(t)—compound concentration in donor well at time t.
Recovery of compounds from donor and acceptor wells (mass retention) was calculated as shown in the equation below. Data were only accepted when recovery exceeded 70%. (3) R=1−cDt∗ VD+cAt∗ VA/c0∗ VD where: • R—mass retention (%); • cA(t)—compound concentration in acceptor well at time t; • cD(t)—compound concentration in donor well at time t; • c0—initial compound concentration in donor well; • VD—donor well volume; • VA—acceptor well volume.

[4] = target: T1, CYP3A4 (Homo sapiens, UniProt P08684); experiment: Cytochrom P450 3A4 inhibition assay (P450-Glo, luciferin-IPA); format: in vitro ADME; settings: recombinant human CYP3A4 Supersomes (+ oxidoreductase + b5), probe luciferin-IPA, stock solutions diluted to 20 µM, pH 7.4, triplicate
T1 construct: purchased Corning, Glendale, AZ, USA
T1 sequence (P08684 2-503 limits assumed): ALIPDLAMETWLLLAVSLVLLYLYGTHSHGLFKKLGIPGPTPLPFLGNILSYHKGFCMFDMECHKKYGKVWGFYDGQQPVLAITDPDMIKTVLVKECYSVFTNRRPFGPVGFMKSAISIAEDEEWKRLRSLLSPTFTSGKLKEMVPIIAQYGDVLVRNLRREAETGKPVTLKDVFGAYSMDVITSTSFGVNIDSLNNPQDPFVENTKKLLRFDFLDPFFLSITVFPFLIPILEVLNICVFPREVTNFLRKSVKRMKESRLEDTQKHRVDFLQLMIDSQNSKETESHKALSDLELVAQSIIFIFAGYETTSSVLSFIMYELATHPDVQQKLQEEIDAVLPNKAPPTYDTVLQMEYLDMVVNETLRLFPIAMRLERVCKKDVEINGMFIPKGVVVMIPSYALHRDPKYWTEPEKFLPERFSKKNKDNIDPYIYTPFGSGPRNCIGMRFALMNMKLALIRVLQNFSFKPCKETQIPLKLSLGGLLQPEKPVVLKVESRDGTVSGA
Protocol: The CYP3A4 inhibition assay was performed using 96-well White Plates (Greiner Bio-One) at a pH of 7.4. […] Stock solutions were further diluted to a final concentration of 20 µM using water (HPLC grade). The luciferin IPA stock solution (3 mM) was diluted to a final concentration of 0.3 mM using water (HPLC grade). The CYP3A4 reaction mixture was prepared by mixing water (HPLC grade) with potassium phosphate buffer (1 M), luciferin IPA (0.3 mM) and CYP3A4 membrane (1 pmol/µL). The control reaction mixture was prepared using water (HPLC grade), potassium phosphate buffer (1 M), luciferin IPA (0.3 mM) and membrane without CYP activity (1 pmol/µL). Solutions A and B of the NADPH regeneration system were mixed and HPLC grade water was added. The reconstituted luciferin detection reagent was prepared by mixing the reconstituted buffer with esterase with the luciferin detection reagent. Then, solutions of test compounds and standard were added to the wells of the 96-well White Plate, each was tested in triplicate. The CYP3A4 reaction mixture was added to each well and the plate was incubated for 10 min at room temperature. After that, the NADPH regeneration system was added, inducing the reaction followed by an incubation time of 10 min at ambient temperature. By adding the reconstituted luciferin detection reagent, the reaction was terminated, and a luminescent signal was formed. Luminescence was measured by a SpectraMax M3 UV plate reader (Molecular Devices). The relative light units (RLU) were received from a calibration curve with beetle luciferin. […] The CYP3A4 inhibition (%) was calculated from the RLU.

[5] = system: L-6 cells; experiment: In vitro cytotoxicity with L-6 cells (Alamar Blue); format: cell-based, rat
Protocol: as §1, §2

[6] = rat skeletal myofibroblasts, average of four determinations, read-out: Cytotoxicity L-6 Cells IC50
[7] = Plasmodium falciparum, NF54, chloroquine-sensitive strain NF54, blood stages, average of four determinations, read-out: P.f. NF54 IC50
[8] = chloroquine-sensitive strain NF54, blood stages, average of four determinations, read-out: P.f. NF54 IC50
[9] = rat, Cytotoxicity L-6 Cells IC50

SMILES	IC50 [1, 7] [µM]	Papp at 5 h, 200 µM [3] [×10⁻⁶ cm/s]	inhibition at 10 min, 20 µM [4] [%]	IC50 at 72 h [2, 9] [µM]	further results
CCN(CC)CCCC(C)Nc1ccnc2cc(Cl)ccc12 (stereo not drawn) [CQ, chloroquine, reference compound]					IC50 ([1]; Plasmodium falciparum, NF54, read-out: P.f. NF54 IC50): 0.009 µM; IC50 at 72 h [2, 6]: 90.9 µM
CC(C)(C)OC(=O)N1CCN(c2ccccc2NC(=O)c2cccc(C(F)(F)F)c2Oc2ccccc2)CC1 [Compound 6, tert-Butyl-4-{2-[2-phenoxy-3-(trifluoromethyl)benzamido]phenyl}piperazine-1-carboxylate]	1.01 to 1.15	3	87		IC50 [1, 8]: 1.01 µM; IC50 at 72 h ([2]; rat, rat skeletal myofibroblasts, average of four determinations, read-out: Cytotoxicity L-6 Cells IC50): 128 µM
CC(=O)Nc1ccc(Oc2c(C(=O)Nc3ccccc3N3CCN(C(=O)OC(C)(C)C)CC3)cccc2C(F)(F)F)cc1 [Compound 8, tert-Butyl-4-{2-[2-(4-acetamidophenoxy)-3-(trifluoromethyl)benzamido]phenyl}piperazine-1-carboxylate]	1.01 to 1.15	4.06	99	73	IC50 [1, 8]: 1.15 µM
CC(C)(C)OC(=O)Nc1ccccc1NC(=O)c1cccc(C(F)(F)F)c1Oc1ccc(F)cc1 [Compound 13, tert-Butyl-N-{2-[2-(4-fluorophenoxy)-3-(trifluoromethyl)benzamido]phenyl}carbamate]	1.9	8.72	90		
CC(=O)N1CCN(c2ccccc2NC(=O)c2cccc(C(F)(F)F)c2Oc2ccc(F)cc2)CC1 [Compound 17, N-[2-(4-Acetylpiperazin-1-yl)phenyl]-2-(4-fluorophenoxy)-3-(trifluoromethyl)benzamide]	2.53	10.1		27.1	
NC(=O)N1CCN(c2ccccc2NC(=O)c2cccc(C(F)(F)F)c2Oc2ccc(F)cc2)CC1 [Compound 21, N-[2-(4-Carbamoylpiperazin-1-yl)phenyl]-2-(4-fluorophenoxy)-3-(trifluoromethyl)benzamide]		7.44		31.8 to 35.4	IC50 ([5]; rat, 72 h): 35.4 µM
Nc1cccc(NC(=O)c2cccc(C(F)(F)F)c2Oc2ccc(F)cc2)c1 [Compound 50, N-(3-Aminophenyl)-2-(4-fluorophenoxy)-3-(trifluoromethyl)benzamide]	51.5 to 51.9	18.4		104	IC50 [1, 8]: 51.5 µM
Nc1ccc(NC(=O)c2cccc(C(F)(F)F)c2Oc2ccc(F)cc2)cc1 [Compound 51, N-(4-Aminophenyl)-2-(4-fluorophenoxy)-3-(trifluoromethyl)benzamide]	51.5 to 51.9	12.9	88	130	IC50 [1, 8]: 55.9 µM
CC(C)(C)C(=O)N1CCN(c2ccc(NC(=O)c3cccc(C(F)(F)F)c3Oc3ccccc3)cc2)CC1 [Compound 55, N-{4-[4-(2,2-Dimethylpropanoyl)piperazin-1-yl]phenyl}-2-phenoxy-3-(trifluoromethyl)benzamide]	4.66	11.2	60	89.8	
COc1cc([C@@H]2c3cc4c(cc3[C@H](O)[C@H]3COC(=O)[C@H]23)OCO4)cc(OC)c1OC [POD, podophyllotoxin, reference compound]					IC50 [5, 6]: 0.012 µM
Cn1c(=O)c2c(ncn2C)n(C)c1=O [caffeine, reference compound]		8			

Continued, in another order:

IC50 [1, 7] [µM]	Papp at 5 h, 200 µM [3] [×10⁻⁶ cm/s]	inhibition at 10 min, 20 µM [4] [%]	SMILES	IC50 at 72 h [2, 9] [µM]	further results
3.74	0.08		CC(C)(C)OC(=O)N1CCN(c2ccccc2NC(=O)c2cccc(C(F)(F)F)c2)CC1 [Compound 7, tert-Butyl-4-{2-[3-(trifluoromethyl)benzamido]phenyl}piperazine-1-carboxylate]	113	
	11.4		Nc1ccccc1NC(=O)c1cccc(C(F)(F)F)c1Oc1ccc(F)cc1 [Compound 14, N-(2-Aminophenyl)-2-(4-fluorophenoxy)-3-(trifluoromethyl)benzamide]	129	
2.3			CN(C)C(=O)N1CCN(c2ccccc2NC(=O)c2cccc(C(F)(F)F)c2Oc2ccc(F)cc2)CC1 [Compound 22, N-{2-[4-(N,N-Dimethylcarbamoyl)piperazin-1-yl]phenyl}-2-(4-fluorophenoxy)-3-(trifluoromethyl)benzamide]	20.2	
3.3	6.17	96	CC(C)(C)OC(=O)N1CCN(c2cccc(NC(=O)c3cccc(C(F)(F)F)c3Oc3ccc(F)cc3)c2)CC1 [Compound 36, tert-Butyl-4-{3-[2-(4-fluorophenoxy)-3-(trifluoromethyl)benzamido]phenyl}piperazine-1-carboxylate]	124	
0.269	0.09	93	CC(C)(C)OC(=O)N1CCN(c2ccc(NC(=O)c3cccc(C(F)(F)F)c3Oc3ccc(F)cc3)cc2)CC1 [Compound 37, tert-Butyl-4-{4-[2-(4-fluorophenoxy)-3-(trifluoromethyl)benzamido]phenyl}piperazine-1-carboxylate]	124	
